Assay results: patent US20240254087A1, “SELECTIVE, PARTIAL, AND ARRESTIN-BIASED 5-HT2A AGONISTS WITH UTILITY IN VARIOUS DISORDERS” (Saint Joseph's University, priority 2021, published 2024)
Entries after “also recorded” stand apart in the source; their conditions may differ. Like-named read-outs stand apart in the source and are kept apart here.

What was measured:
[1] = test system: 5-HT2A; test: Ca2+ flux assay, 5-HT2A; format: cell-based, human; settings: Gq/11 Ca2+ mobilization; higher number = skewed towards 5-HT2A
Description: (§1) Cell lines were maintained in DMEM containing 10% FBS, 10 μg/mL Blasticidin (Invivogen), and 100 μg/mL Hygromycin B (GoldBio). At least 20-24 hours before the assay, receptor expression was induced with tetracycline ([…]) and cells were seeded into 384-well poly-L-lysine-coated black plates at a density of 7,500 cells/well in DMEM containing 1% dialyzed FBS. On the day of the assay, the cells were incubated for 1 h at 37° C. with Fluo-4 Direct dye (Invitrogen, 20 μl/well) reconstituted in drug buffer (20 mM HEPES-buffered HBSS, pH 7.4) containing 2.5 mM probenecid. Drug dilutions were prepared at 5X final concentration in McCorvy buffer (20 mM HEPES-buffered HBSS, 0).1% BSA, 0.01% ascorbic acid pH 7.4). After dye load, cells were allowed to equilibrate to room temperature for 15 minutes, and then placed in a FLIPR^TETRA fluorescence imaging plate reader (Molecular Devices). Fluorescence for the FLIPR^TETRA were programmed to read baseline fluorescence for 10 s (1 read/s), and afterward 5 μl of drug per well was added and read for a total of 5-10 min (1 read/s). Fluorescence in each well was normalized to the average of the first 10 reads for baseline fluorescence, and then either maximum-fold peak increase over basal or area under the curve (AUC) was calculated. […] Data was plotted and non-linear regression was performed using “log(agonist) vs. response” in Graphpad Prism 8 to yield Emax and EC50 parameter estimates.

[2] = test system: male C57BL/6J mice; test: Head-twitch response (HTR) in mice; format: in vivo, mouse; settings: for ED50: Mus musculus
Description: Male C57BL/6J mice (6-8 weeks old) from Jackson Labs (Bar Harbor, ME, USA) were used for the behavioral experiments. The mice were housed on a reversed light-dark cycle (lights on at 1900 h, off at 0700 h) in an AAAC-approved vivarium at the University of California San Diego. Mice were housed up to four per cage in a climate-controlled room and with food and water provided ad libitum except during behavioral testing. Testing was performed between 1000 and 1800 h (during the dark phase of the light-dark cycle). The studies were conducted in accordance with National Institutes Health (NIH) guidelines and were approved by the University of California San Diego Institutional Animal Care and Use Committee.
The mice were allowed to recover from the magnet implantation surgeries for at least 1 week prior to behavioral testing. HTR experiments were conducted in a well-lit room, and the mice were allowed to habituate to the room for at least 1 h prior to testing. Head twitches was assessed in a 12-cm diameter glass cylinder surrounded by a magnetometer coil. Coil voltage was low-pass filtered (2 kHz), amplified, and digitized (20-kHz sampling rate) using a Powerlab/8SP with LabChart v 7.3.2 (ADInstruments, Colorado Springs, CO, USA). […] HTR counts were analyzed using one-way ANOVAs. Dunnett's test was used for post hoc comparisons.

[3] = biological target: T1, 5-HT2A (Homo sapiens, UniProt P28223); test: Ca2+ flux assay, 5-HT2A; format: cell-based; parameters: expressed in transfected cells; settings: for Emax: read-out: 5-HT2A Emax % 5-HT, Ca2+ flux
Description: as §1

[4] = biological target: T2, 5-HT2B (Homo sapiens, UniProt P41595); test: Ca2+ flux assay, 5-HT2B; format: cell-based; parameters: expressed in transfected cells; settings: Ca2+ flux; for Emax: read-out: 5-HT2B Emax % 5-HT
Description: as §1

[5] = biological target: T3, 5-HT2C (Homo sapiens, UniProt P28335); test: Ca2+ flux assay, 5-HT2C; format: cell-based; parameters: expressed in transfected cells; settings: for EC50: 5-HT2C EC50, nM; for Emax: read-out: 5-HT2C Emax % 5-HT
T3 sequence (P28335 33-458): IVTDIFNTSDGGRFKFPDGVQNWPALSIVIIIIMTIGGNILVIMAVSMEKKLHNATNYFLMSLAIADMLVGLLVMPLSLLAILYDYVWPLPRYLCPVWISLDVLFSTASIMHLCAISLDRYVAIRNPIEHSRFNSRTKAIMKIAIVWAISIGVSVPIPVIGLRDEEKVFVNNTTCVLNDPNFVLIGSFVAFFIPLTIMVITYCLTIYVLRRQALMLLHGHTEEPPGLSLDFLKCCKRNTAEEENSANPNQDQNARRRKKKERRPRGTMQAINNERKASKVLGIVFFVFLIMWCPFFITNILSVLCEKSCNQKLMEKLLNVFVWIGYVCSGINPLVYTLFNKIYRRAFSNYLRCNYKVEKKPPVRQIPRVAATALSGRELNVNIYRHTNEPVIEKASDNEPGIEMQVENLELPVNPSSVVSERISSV
Description: as §1

[6] = biological target: T2, 5-HT2B; test: BRET Gq dissociation, 5-HT2B; format: cell-based; parameters: expressed in transfected cells; host or cells: HEK293T, transient; settings: for Emax: read-out: 5-HT2B Gq Dissociation (BRET) EMAX ± SEM (%5-HT)
[7] = biological target: T3, 5-HT2C; test: BRET Gq dissociation, 5-HT2C; format: cell-based; parameters: expressed in transfected cells; host or cells: HEK293T, transient; settings: for Emax: read-out: 5-HT2C Gq Dissociation (BRET) EMAX ± SEM (%5-HT)
[8] = biological target: T1, 5-HT2A; test: cell-based; parameters: expressed in transfected cells; host or cells: HEK293T, transient; settings: BRET, mean ± SEM
[9] = biological target: T1, 5-HT2A; test: cell-based; parameters: expressed in transfected cells; host or cells: HEK293T, transient
[10] = read-out: HTR ED50 μmol/kg (95% CI), SC, except DOI and 25D-NBOMe IP
[11] = read-out: HTR ED50 mg/kg (95% CI), SC, except DOI and 25D-NBOMe IP
[12] = SC, except DOI and 25D-NBOMe IP

T2 sequence (P41595 whole entry): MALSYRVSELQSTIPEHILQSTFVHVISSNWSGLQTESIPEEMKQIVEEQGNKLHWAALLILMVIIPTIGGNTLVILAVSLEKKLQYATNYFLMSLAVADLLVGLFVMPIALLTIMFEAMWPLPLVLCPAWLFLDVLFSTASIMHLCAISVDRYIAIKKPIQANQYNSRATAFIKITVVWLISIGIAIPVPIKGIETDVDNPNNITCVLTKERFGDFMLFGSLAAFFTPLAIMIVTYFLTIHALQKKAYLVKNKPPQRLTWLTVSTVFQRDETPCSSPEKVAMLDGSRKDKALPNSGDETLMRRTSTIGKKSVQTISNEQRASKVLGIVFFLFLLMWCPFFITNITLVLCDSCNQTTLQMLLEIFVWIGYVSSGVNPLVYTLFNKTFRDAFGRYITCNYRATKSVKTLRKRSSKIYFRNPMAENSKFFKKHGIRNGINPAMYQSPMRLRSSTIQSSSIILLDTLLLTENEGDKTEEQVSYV
T1 sequence (P28223 whole entry): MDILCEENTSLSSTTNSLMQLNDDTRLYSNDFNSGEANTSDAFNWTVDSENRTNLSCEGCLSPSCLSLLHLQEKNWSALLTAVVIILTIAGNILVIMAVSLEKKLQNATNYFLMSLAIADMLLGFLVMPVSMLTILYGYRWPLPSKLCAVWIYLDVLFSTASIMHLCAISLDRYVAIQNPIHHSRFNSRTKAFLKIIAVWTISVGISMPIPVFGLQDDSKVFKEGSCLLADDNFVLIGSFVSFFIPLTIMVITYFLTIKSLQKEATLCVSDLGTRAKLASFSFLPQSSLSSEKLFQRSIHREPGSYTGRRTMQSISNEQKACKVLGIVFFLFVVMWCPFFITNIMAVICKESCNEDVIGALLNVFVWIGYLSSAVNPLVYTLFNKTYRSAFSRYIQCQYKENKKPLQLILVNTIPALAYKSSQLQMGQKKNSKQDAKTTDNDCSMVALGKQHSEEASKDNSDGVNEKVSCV

## COc1cc([N+](=O)[O-])c(OC)cc1CCNCc1ccccc1Br [25N-NBBr (9)]
[1]
  5-HT2A/5-HT2c Selectivity Factor ΔLog(Emax/EC50): 61.9
[2]
  Max HTR response during a 30-min assessment (maximum counts ÷ baseline response): 4.7-fold increase
[2]; [10]
  ED50: 14.6 µmol/kg
[2]; [11]
  ED50: 6.31 mg/kg
[3]; 5-HT2A EC50, nM, Ca2+ flux
  EC50: 2.36 nM
[3]
  Emax: 79 ± 2%
[4]
  5-HT2B EC50, nM: No activity
  Emax: < 10%
[5]
  EC50: 144 nM
  Emax: 78 ± 2%
[6]
  EC50: 245 nM
  Emax: 17 ± 2.1%
[7]
  EC50: 30.9 nM
  Emax: 81 ± 2.3%

## COc1cc([N+](=O)[O-])c(OC)cc1CCNCc1ccccc1Cl [25N-NBCl (8)]
[1]
  5-HT2A/5-HT2c Selectivity Factor ΔLog(Emax/EC50): 43.3
[2]
  Max HTR response during a 30-min assessment (maximum counts ÷ baseline response): 2.3-fold increase
[2]; [10]
  ED50: 10.4 µmol/kg
[2]; [11]
  ED50: 4.04 mg/kg
[3]; 5-HT2A EC50, nM, Ca2+ flux
  EC50: 2.03 nM
[3]
  Emax: 80 ± 2%
[4]
  5-HT2B EC50, nM: No activity
  Emax: < 10%
[5]
  EC50: 89.3 nM
  Emax: 81 ± 2%
[6]
  EC50: 204 nM
  Emax: 27 ± 3%
[7]
  EC50: 21.4 nM
  Emax: 82.5 ± 2.8%

## COc1cc([N+](=O)[O-])c(OC)cc1CCNCc1ccccc1F [25N-NBF (7)]
[1]
  5-HT2A/5-HT2c Selectivity Factor ΔLog(Emax/EC50): 18.9
[2]
  Max HTR response during a 30-min assessment (maximum counts ÷ baseline response): 4.5-fold increase
[2]; [10]
  ED50: 4.1 µmol/kg
[2]; [11]
  ED50: 1.52 mg/kg
[3]; 5-HT2A EC50, nM, Ca2+ flux
  EC50: 1.56 nM
[3]
  Emax: 84 ± 1%
[4]
  5-HT2B EC50, nM: No activity
  Emax: < 10%
[5]
  EC50: 28.8 nM
  Emax: 82 ± 2%
[6]
  EC50: 75.9 nM
  Emax: 24.8 ± 3.2%
[7]
  EC50: 14.1 nM
  Emax: 83.1 ± 2.1%

## COc1cc([N+](=O)[O-])c(OC)cc1CCNCc1ccccc1OC(F)F [25N-NBOCF2H (11), {[2-(difluoromethoxy)phenyl]methyl}[2-(2,5-dimethoxy-4-nitrophenyl)ethyl]amine]
[1]
  5-HT2A/5-HT2c Selectivity Factor ΔLog(Emax/EC50): 1.9
[2]
  Induction of the HTR in mice (in words): lacked a HTR; also recorded: failed to induce a HTR
  Max HTR response during a 30-min assessment (maximum counts ÷ baseline response): 13.5-fold increase
[2]; [10]
  ED50: 4.32 µmol/kg
[2]; [11]
  ED50: 1.81 mg/kg
[3]; 5-HT2A EC50, nM, Ca2+ flux
  EC50: 1.92 nM
[3]; Ca2+ flux
  5-HT2A Emax % 5-HT: 95 ± 1 % 5-HT
[3]
  Emax: ≤ 77%
[4]
  5-HT2B EC50, nM: No activity
  Emax: < 10%
[5]
  EC50: 3.99 nM
  Emax: 101 ± 1%

## CCOc1ccccc1CNCCc1cc(OC)c([N+](=O)[O-])cc1OC [25N-NBOEt (5)]
[1]
  5-HT2A/5-HT2c Selectivity Factor ΔLog(Emax/EC50): 1.0
[2]
  Max HTR response during a 30-min assessment (maximum counts ÷ baseline response): 13.2-fold increase
[2]; [10]
  ED50: 1.44 µmol/kg
[2]; [11]
  ED50: 0.57 mg/kg
[3]; 5-HT2A EC50, nM, Ca2+ flux
  EC50: 0.72 nM
[3]
  Emax: 87 ± 2%
[4]
  5-HT2B EC50, nM: No activity
  Emax: < 10%
[5]
  EC50: 0.88 nM
  Emax: 99 ± 1%

## COc1cc([N+](=O)[O-])c(OC)cc1CCNCc1ccccc1O [25N-NBOH (3), 2-({[2-(2,5-dimethoxy-4-nitrophenyl)ethyl]amino}methyl)phenol]
[1]
  5-HT2A/5-HT2c Selectivity Factor ΔLog(Emax/EC50): 4.9
[2]
  Max HTR response during a 30-min assessment (maximum counts ÷ baseline response): 8.8-fold increase
[2]; [10]
  ED50: 0.19 µmol/kg
[2]; [11]
  ED50: 0.07 mg/kg
[3]; 5-HT2A (pEC50 ± SEM), Ca2+ flux
  EC50: 0.316 nM
[3]
  Emax: 87 ± 2%
[4]
  5-HT2B EC50, nM: No activity
  Emax: < 10%
[5]
  EC50: 1.78 nM
  Emax: 100 ± 2%

## COc1cc(CCN)c(OC)cc1I [Compound 2C-I, reference compound]
[2]
  Max HTR response during a 30-min assessment (maximum counts ÷ baseline response): 13.8-fold increase
[2]; [12]
  HTR ED50 μmol/kg (95% CI): 2.42 (1.46-4.02) μmol/kg
  HTR ED50 mg/kg (95% CI): 0.83 (0.50-1.38) mg/kg
[8]
  5-HT2A Gq Emax (% 5-HT): 93.4 ± 1.4 % 5-HT
  5-HT2A Gq dissociation pEC50: 8.83 ± 0.05
[9]; BRET, mean ± SEM
  5-HT2A β-arrestin Emax (% 5-HT): 74.3 ± 1.6 % 5-HT
  5-HT2A β-arrestin recruitment pEC50: 8.25 ± 0.07
[6]
  5-HT2B Gq Dissociation (BRET) EMAX ± SEM (%5-HT): 101.0 ± 2.1 %5-HT
  5-HT2B Gq Dissociation (BRET) pEC50 ± SEM: 7.72 ± 0.07
[7]
  5-HT2C Gq Dissociation (BRET) EMAX ± SEM (%5-HT): 106.9 ± 1.5 %5-HT
  5-HT2C Gq Dissociation (BRET) pEC50 ± SEM: 9.34 ± 0.05

## COc1cc(CCNCc2ccccc2OC)c(OC)cc1I [Compound 25I-NBOMe, reference compound]
[2]
  Max HTR response during a 30-min assessment (maximum counts ÷ baseline response): 16.0-fold increase
[2]; [10]
  ED50: 0.17 µmol/kg
[2]; [11]
  ED50: 0.078 mg/kg
[8]
  5-HT2A Gq Emax (% 5-HT): 99.8 ± 1.2 % 5-HT
[8]; read-out: 5-HT2A Gq dissociation pEC50 (converted)
  EC50: 0.355 nM
[9]; BRET, mean ± SEM, read-out: 5-HT2A β-arrestin recruitment pEC50 (converted)
  EC50: 0.525 nM
[9]; read-out: 5-HT2A β-arrestin Emax (% 5-HT), BRET, mean ± SEM
  Emax: 137 ± 3.7%
[6]
  Emax: 78.6 ± 2.6%
[6]; read-out: 5-HT2B Gq Dissociation (BRET) pEC50 ± SEM (converted)
  EC50: 3.39 nM
[7]
  Emax: 124 ± 3.1%
[7]; read-out: 5-HT2C Gq Dissociation (BRET) pEC50 ± SEM (converted)
  EC50: 0.0977 nM
